Laboratory results published in patent US11629171B2, “Beta-hairpin peptidomimetics” (POLYPHOR AG, priority 2017, dated 2023).
≈ marks a conversion by molar mass, not a printed value. Where a SMILES comes first, the peptide text is derived from it. Bridges are numbered along the chain shown (N, C = ends). Roman numbers before positions name the chains, in order. [ ]: non-standard residue; d: D form. dDab = NCC[C@@H](N)C(=O)O; Orn = NCCC[C@H](N)C(=O)O; Dab = NCC[C@H](N)C(=O)O; Dap = NC[C@H](N)C(=O)O

Legend:
[1] = system: Acinetobacter baumannii 872842; assay type: cell-based; conditions: 872842
In short: (§1)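 Standard CLSI microdilution testing: bacterial suspensions standardized against 0.5 McFarland to about 10^6 CFU/mL in MH-II broth meet serially halved peptide concentrations in broth containing 0.002% polysorbate 80; incubation lasts 18-20 h at 35° C before the MIC is scored.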

[2] = system: Acinetobacter baumannii DSM 30008; assay type: cell-based; conditions: DSM 30008
In short: as §1

[3] = system: Enterobacter cloacae 848840; assay type: cell-based; conditions: 848840
In short: as §1

Escherichia coli 926415 = assay type: cell-based; conditions: 926415
In short: as §1

[4] = system: Escherichia coli ATCC 25922; assay type: cell-based; conditions: ATCC 25922
In short: as §1

[5] = system: Klebsiella pneumoniae 968733; assay type: cell-based; conditions: 968733
In short: as §1

[6] = system: Klebsiella pneumoniae SSI #3010; assay type: cell-based; conditions: SSI #3010
In short: as §1

[7] = system: Pseudomonas aeruginosa ATCC 27853; assay type: cell-based; conditions: ATCC 27853
In short: as §1

[8] = system: human red blood cells (hRBC); experiment: Hemolysis; assay type: cell-based; conditions: red cells of human, 1 h, 200
In short: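 Washed fresh human RBC (20% v/v) incubated with peptide at 200 μg/mL for 1 h at 37° C with shaking. Supernatant OD540 measured after dilution, blank corrected; percent hemolysis = OD540 peptide / OD540 of 2% Triton X-100 lysis × 100, PBS with 10% water as 0%.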

male ICR mice = experiment: Tolerability in a mouse model (Maximum Tolerated Dose assay); assay type: in vivo; conditions: 2 × 40 mg/kg s.c. at a 12-hr interval, groups of 3
In short: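 Peptides in 0.9% NaCl (pH 6.5-7.6) given s.c. at 30 or 40 mg/kg, twice 12 h apart, to groups of 3 male ICR mice (23±3 g). Acute toxic signs (mortality, convulsions, tremors, sedation) and autonomic effects (diarrhea, salivation, piloerection) observed for 30 min after each dose.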

**Q.** Which results are given for `CC(=O)N[C@H](C(=O)N[C@H]1CCNC(=O)C[C@@H](C(=O)N[C@@H](CO)C(N)=O)NC(=O)[C@H](C(C)C)NC(=O)[C@H](CO)NC(=O)[C@H](Cc2c[nH]c3ccccc23)NC(=O)CNC(=O)[C@@H](CCN)NC(=O)[C@H](CCC(=O)N[C@@H](CCN)C(=O)N[C@H](C(=O)N[C@@H](CN)C(=O)N[C@H]2CCNC(=O)[C@H]([C@@H](C)O)NC(=O)[C@H](CCN)NC(=O)[C@H](CCN)NC(=O)[C@H](CC(C)C)NC(=O)[C@@H](CC(C)C)NC(=O)[C@H](CCN)NC2=O)[C@@H](C)O)NC(=O)[C@H](CCN)NC(=O)[C@H](Cc2ccc(O)cc2)NC1=O)C(C)C` [Ex. 351] (I: Ac-V[Dab]Y[Dab]E[dDab]GWSVDS-NH2 / II: [Dab]T[Dap][Dab][Dab][dL]L[Dab][Dab]T; lactam I:2-I:11, II:4-II:C; amide I:5-II:N)?
**A.** MIC [1]: 0.25 µg/mL (≈ 0.106 µM); Acinetobacter baumannii DSM 30008 MIC [2]: 0.0625 µg/mL; MIC [3]: 0.25 µg/mL (≈ 0.106 µM); MIC (Escherichia coli 926415): 0.5 µg/mL (≈ 0.212 µM); Escherichia coli ATCC 25922 MIC [4]: 0.0625 µg/mL; MIC [5]: 1 µg/mL (≈ 0.423 µM); Klebsiella pneumoniae SSI #3010 MIC [6]: 0.0625 µg/mL; Pseudomonas aeruginosa ATCC 27853 MIC [7]: 0.125 µg/mL; Hemolysis at 200 μg/mL [8]: <1%; Mortality and dose (male ICR mice): 0/3 died at 2 × 40 mg/kg

**Q.** For `CC(=O)N[C@H](C(=O)N[C@H]1CSSC[C@@H](C(=O)N[C@@H](CO)C(N)=O)NC(=O)[C@H](C(C)C)NC(=O)[C@H](CO)NC(=O)[C@H](Cc2c[nH]c3ccccc23)NC(=O)[C@H](CCC(=O)N[C@@H](CCN)C(=O)N[C@H](C(=O)N[C@@H](CN)C(=O)N[C@H]2CCNC(=O)[C@H]([C@@H](C)O)NC(=O)[C@H](CCN)NC(=O)[C@H](CCN)NC(=O)[C@H](CC(C)C)NC(=O)[C@@H](CC(C)C)NC(=O)[C@H](CCN)NC2=O)[C@@H](C)O)NC(=O)[C@@H](CCN)NC(=O)[C@H](CCCN)NC(=O)[C@H](CCN)NC(=O)[C@H](Cc2ccc(O)cc2)NC1=O)C(C)C` [Ex. 359] (I: Ac-VCY[Dab][Orn][dDab]EWSVCS-NH2 / II: [Dab]T[Dap][Dab][Dab][dL]L[Dab][Dab]T; disulfide I:2-I:11; amide I:7-II:N; lactam II:4-II:C), which MIC [1] is on record?
**A.** The MIC was 0.125 µg/mL (≈ 0.0515 µM).

**Q.** And the “Acinetobacter baumannii DSM 30008 MIC” value [2]?
**A.** Its value is 0.0625 µg/mL.

**Q.** What about the MIC [3] of the same compound?
**A.** The MIC was 0.125 µg/mL (≈ 0.0515 µM).

**Q.** What about the MIC (Escherichia coli 926415) of the same compound?
**A.** Its MIC is 0.25 µg/mL (≈ 0.103 µM).

**Q.** And the “Escherichia coli ATCC 25922 MIC” value [4]?
**A.** The value was 0.0625 µg/mL.

**Q.** What about the MIC [5] of the same compound?
**A.** Its MIC is 0.5 µg/mL (≈ 0.206 µM).

**Q.** And the “Klebsiella pneumoniae SSI #3010 MIC” value [6]?
**A.** The value was 0.125 µg/mL.

**Q.** And the “Pseudomonas aeruginosa ATCC 27853 MIC” value [7]?
**A.** Its value is 0.125 µg/mL.

**Q.** And the “Hemolysis at 200 μg/mL” value [8]?
**A.** Its value is 1%.

**Q.** What about the Mortality and dose (male ICR mice) of the same compound?
**A.** The Mortality and dose was 0/3 died at 2 × 40 mg/kg.

**Q.** Which MIC [1] does the source give for `CC(=O)N[C@H](C(=O)N[C@H]1CSSC[C@@H](C(=O)N[C@@H](CO)C(N)=O)NC(=O)[C@H](C(C)C)NC(=O)[C@H](CO)NC(=O)[C@H](Cc2c[nH]c3ccccc23)NC(=O)[C@H](CO)NC(=O)CNC(=O)[C@H](CCC(=O)N[C@@H](CCN)C(=O)N[C@H](C(=O)N[C@@H](CN)C(=O)N[C@H]2CCNC(=O)[C@H]([C@@H](C)O)NC(=O)[C@H](CCN)NC(=O)[C@H](CCN)NC(=O)[C@H](CC(C)C)NC(=O)[C@@H](CC(C)C)NC(=O)[C@H](CCN)NC2=O)[C@@H](C)O)NC(=O)[C@H](CCN)NC(=O)[C@H](Cc2ccc(O)cc2)NC1=O)C(C)C` [Ex. 337] (I: Ac-VCY[Dab]EGSWSVCS-NH2 / II: [Dab]T[Dap][Dab][Dab][dL]L[Dab][Dab]T; disulfide I:2-I:11; amide I:5-II:N; lactam II:4-II:C) here?
**A.** The MIC was 0.25 µg/mL (≈ 0.106 µM).

**Q.** What about the “Acinetobacter baumannii DSM 30008 MIC” value [2] of the same compound?
**A.** Its value is 0.125 µg/mL.

**Q.** And the MIC [3]?
**A.** The MIC was 0.25 µg/mL (≈ 0.106 µM).

**Q.** What about the MIC (Escherichia coli 926415) of the same compound?
**A.** The MIC was 1 µg/mL (≈ 0.424 µM).

**Q.** And the “Escherichia coli ATCC 25922 MIC” value [4]?
**A.** The value was 0.0625 µg/mL.

**Q.** And the MIC [5]?
**A.** Its MIC is 2 µg/mL (≈ 0.849 µM).

**Q.** And the “Klebsiella pneumoniae SSI #3010 MIC” value [6]?
**A.** Its value is 0.125 µg/mL.

**Q.** And the “Pseudomonas aeruginosa ATCC 27853 MIC” value [7]?
**A.** Its value is 0.25 µg/mL.

**Q.** What about the “Hemolysis at 200 μg/mL” value [8] of the same compound?
**A.** Its value is 2%.

**Q.** What about the Mortality and dose (male ICR mice) of the same compound?
**A.** The Mortality and dose was 0/3 died at 2 × 40 mg/kg.
